Laboratory results from patent US9878986B2, “Compounds for selective histone deacetylase inhibitors, and pharmaceutical composition comprising the same” (CHONG KUN DANG PHARMACEUTICAL CORP., priority 2013, dated 2018).
pIC50: −log10 of the molar value.

Legend:
[1] = system: collagen-induced arthritis models; test: Collagen-induced arthritis models; assay type: in vivo, DBA/1J mice; details: for arthritis symptoms improved by: versus vehicle group
Protocol: An emulsion was prepared by mixing bovine collagen type II (Chondrex) and complete Freund's adjuvant (Chondrex) at a ratio of 1:1 until the […] using a 1 ml pipette. Each 100 μL of emulsion was intradermally injected into the tail of DBA/1J mice for the first immunization. After 21 days, an emulsion was prepared by mixing bovine collagen type II and incomplete Freund's adjuvant (Chondrex) at a ratio of 1:1 by the same method as above. Each of 100 μL of emulsion was intradermally injected into the upper part of the tail of DBA/1J mice for the second boosting immunization. After the second boosting immunization, the mice were grouped according to body weight, the test drug was administered to each group, and the effects of the test drugs were measured by measuring the clinical score and the body weight. The clinical scores were assigned from 0 to 4, and the total clinical score was determined by evaluating the feet of each mouse and summing up the scores (normal: 0, most severe edema: 16). That is, the efficacy in the arthritis models was evaluated with the severity of edema of the joint, and a higher score was assigned to more severe edema.

HDAC 9 = target: T1, HDAC 9 (Homo sapiens, UniProt Q9UKV0); test: HDAC panel by Reaction Biology Corp., HDAC 9; assay type: biochemical; details: read-out: HDAC inhibitory activities, HDAC 9
T1 construct: Reaction Biology Corp
Source text: (§1) The inhibitory activities of Compounds 255 and 374 on all HDACs were confirmed (by Reaction Biology Corp.).

HDAC 4 = target: T2, HDAC 4 (Homo sapiens, UniProt P56524); test: HDAC panel by Reaction Biology Corp., HDAC 4; assay type: biochemical; details: read-out: HDAC inhibitory activities, HDAC 4
T2 construct: Reaction Biology Corp
Source text: as §1

HDAC1 = HDAC1 (Homo sapiens, UniProt Q13547); test: HDAC panel by Reaction Biology Corp., HDAC 1; assay type: biochemical; set-up: Reaction Biology Corp; details: Table 15, Reaction Biology Corp.; read-out: HDAC1 inhibitory activity
Source text: as §1

HDAC 7 = target: T3, HDAC 7 (Homo sapiens, UniProt Q8WUI4); test: HDAC panel by Reaction Biology Corp., HDAC 7; assay type: biochemical; details: read-out: HDAC inhibitory activities, HDAC 7
T3 construct: Reaction Biology Corp
T3 sequence (Q8WUI4 1-952): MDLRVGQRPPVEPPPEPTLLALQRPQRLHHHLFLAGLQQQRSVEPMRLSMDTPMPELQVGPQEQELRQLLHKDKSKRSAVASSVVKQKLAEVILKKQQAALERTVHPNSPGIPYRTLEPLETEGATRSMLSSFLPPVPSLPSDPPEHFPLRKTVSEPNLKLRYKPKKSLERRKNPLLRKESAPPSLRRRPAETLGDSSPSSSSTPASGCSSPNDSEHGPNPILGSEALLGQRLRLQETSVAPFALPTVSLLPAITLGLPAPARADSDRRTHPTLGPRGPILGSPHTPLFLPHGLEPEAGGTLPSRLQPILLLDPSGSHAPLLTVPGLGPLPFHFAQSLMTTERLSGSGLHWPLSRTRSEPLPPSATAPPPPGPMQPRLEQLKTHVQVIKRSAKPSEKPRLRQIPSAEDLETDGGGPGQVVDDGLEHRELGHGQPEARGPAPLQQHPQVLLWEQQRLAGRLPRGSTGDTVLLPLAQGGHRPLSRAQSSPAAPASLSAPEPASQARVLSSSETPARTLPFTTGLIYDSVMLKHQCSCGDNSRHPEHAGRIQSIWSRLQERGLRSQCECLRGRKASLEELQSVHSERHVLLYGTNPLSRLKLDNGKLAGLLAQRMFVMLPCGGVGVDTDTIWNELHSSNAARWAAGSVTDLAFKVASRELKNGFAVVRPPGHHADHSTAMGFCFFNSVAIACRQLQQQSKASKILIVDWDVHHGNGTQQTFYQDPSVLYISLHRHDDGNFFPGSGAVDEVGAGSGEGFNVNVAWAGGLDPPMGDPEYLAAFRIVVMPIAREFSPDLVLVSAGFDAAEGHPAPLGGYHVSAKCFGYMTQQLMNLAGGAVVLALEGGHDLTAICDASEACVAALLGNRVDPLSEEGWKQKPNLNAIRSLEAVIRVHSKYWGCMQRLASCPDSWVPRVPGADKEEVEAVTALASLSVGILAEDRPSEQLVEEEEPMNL
Source text: as §1

HDAC 3 = target: T4, HDAC 3 (Homo sapiens, UniProt O15379); test: HDAC panel by Reaction Biology Corp., HDAC 3; assay type: biochemical; details: read-out: HDAC inhibitory activities, HDAC 3
T4 construct: Reaction Biology Corp
Source text: as §1

HDAC 2 = target: T5, HDAC 2 (Homo sapiens, UniProt Q92769); test: HDAC panel by Reaction Biology Corp., HDAC 2; assay type: biochemical; details: read-out: HDAC inhibitory activities, HDAC 2
T5 construct: Reaction Biology Corp
Source text: as §1

HDAC 10 = target: T6, HDAC 10 (Homo sapiens, UniProt Q969S8); test: HDAC panel by Reaction Biology Corp., HDAC 10; assay type: biochemical; details: read-out: HDAC inhibitory activities, HDAC 10
T6 construct: Reaction Biology Corp
T6 sequence (Q969S8 1-669): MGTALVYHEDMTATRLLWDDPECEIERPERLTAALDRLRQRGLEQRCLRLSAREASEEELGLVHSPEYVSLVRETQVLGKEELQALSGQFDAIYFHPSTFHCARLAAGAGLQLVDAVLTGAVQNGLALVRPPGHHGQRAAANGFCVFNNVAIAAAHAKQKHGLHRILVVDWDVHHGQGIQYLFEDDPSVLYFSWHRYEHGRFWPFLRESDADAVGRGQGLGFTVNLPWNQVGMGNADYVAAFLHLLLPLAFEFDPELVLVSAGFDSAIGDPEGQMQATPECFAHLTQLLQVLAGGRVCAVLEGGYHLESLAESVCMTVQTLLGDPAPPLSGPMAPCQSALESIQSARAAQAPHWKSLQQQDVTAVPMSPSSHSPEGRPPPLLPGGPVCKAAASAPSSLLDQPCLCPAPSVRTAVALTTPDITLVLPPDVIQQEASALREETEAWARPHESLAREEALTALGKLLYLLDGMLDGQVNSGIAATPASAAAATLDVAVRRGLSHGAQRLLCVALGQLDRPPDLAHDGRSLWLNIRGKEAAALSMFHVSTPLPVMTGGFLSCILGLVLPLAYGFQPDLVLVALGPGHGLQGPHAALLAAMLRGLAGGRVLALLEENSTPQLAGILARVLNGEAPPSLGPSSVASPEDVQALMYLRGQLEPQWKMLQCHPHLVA
Source text: as §1

T1 sequence (Q9UKV0 whole entry): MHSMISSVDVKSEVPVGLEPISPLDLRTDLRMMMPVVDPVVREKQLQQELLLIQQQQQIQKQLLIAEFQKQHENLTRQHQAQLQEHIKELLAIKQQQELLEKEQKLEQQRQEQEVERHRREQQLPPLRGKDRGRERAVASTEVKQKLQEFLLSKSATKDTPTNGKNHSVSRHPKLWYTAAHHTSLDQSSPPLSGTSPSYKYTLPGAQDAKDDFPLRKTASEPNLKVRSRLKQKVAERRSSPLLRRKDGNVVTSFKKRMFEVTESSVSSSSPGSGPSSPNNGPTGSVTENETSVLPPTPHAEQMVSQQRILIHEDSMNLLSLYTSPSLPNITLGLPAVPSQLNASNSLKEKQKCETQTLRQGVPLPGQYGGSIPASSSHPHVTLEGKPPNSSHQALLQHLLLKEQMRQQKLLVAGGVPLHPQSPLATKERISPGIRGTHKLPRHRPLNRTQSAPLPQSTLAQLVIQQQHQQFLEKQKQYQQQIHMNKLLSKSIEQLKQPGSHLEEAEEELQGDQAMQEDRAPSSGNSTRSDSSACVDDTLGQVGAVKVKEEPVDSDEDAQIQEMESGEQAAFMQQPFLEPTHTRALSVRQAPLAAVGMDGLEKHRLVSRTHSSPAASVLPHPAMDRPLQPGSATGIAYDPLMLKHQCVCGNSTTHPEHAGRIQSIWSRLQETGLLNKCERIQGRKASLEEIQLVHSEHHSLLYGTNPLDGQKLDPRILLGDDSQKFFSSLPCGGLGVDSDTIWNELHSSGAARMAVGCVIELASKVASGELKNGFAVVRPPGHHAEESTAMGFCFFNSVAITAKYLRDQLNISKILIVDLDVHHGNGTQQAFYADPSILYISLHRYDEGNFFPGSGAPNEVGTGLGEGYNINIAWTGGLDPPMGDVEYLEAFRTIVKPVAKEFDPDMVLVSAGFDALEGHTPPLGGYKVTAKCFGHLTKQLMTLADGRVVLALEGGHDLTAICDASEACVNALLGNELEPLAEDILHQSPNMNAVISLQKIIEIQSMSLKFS
T2 sequence (P56524 whole entry): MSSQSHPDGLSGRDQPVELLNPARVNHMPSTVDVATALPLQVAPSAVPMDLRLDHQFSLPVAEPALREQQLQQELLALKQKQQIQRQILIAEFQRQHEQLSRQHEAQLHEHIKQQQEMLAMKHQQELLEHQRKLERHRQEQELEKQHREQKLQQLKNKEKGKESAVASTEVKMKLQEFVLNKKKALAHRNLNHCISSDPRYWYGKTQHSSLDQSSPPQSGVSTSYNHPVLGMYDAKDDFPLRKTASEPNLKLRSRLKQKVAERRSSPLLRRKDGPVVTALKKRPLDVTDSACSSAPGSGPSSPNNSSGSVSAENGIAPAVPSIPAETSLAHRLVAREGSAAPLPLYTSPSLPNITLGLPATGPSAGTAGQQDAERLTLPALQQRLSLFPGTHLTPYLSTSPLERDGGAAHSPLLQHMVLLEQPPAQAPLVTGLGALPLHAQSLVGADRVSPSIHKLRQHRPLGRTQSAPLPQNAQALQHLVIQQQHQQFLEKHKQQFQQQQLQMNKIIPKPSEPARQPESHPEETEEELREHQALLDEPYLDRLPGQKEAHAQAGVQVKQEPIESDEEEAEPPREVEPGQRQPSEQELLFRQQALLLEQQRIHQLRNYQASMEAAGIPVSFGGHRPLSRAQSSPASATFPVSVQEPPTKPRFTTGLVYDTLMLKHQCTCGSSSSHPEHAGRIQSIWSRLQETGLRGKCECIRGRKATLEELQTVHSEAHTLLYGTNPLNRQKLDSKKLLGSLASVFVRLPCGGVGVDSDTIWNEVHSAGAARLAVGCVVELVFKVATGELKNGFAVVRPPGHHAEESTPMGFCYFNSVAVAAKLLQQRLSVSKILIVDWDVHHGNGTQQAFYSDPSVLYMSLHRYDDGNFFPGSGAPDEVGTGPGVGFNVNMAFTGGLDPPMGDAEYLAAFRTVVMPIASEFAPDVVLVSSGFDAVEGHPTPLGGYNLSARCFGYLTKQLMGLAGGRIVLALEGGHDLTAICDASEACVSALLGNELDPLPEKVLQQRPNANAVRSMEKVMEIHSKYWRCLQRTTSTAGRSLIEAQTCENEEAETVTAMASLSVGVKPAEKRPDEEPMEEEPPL
T4 sequence (O15379 whole entry): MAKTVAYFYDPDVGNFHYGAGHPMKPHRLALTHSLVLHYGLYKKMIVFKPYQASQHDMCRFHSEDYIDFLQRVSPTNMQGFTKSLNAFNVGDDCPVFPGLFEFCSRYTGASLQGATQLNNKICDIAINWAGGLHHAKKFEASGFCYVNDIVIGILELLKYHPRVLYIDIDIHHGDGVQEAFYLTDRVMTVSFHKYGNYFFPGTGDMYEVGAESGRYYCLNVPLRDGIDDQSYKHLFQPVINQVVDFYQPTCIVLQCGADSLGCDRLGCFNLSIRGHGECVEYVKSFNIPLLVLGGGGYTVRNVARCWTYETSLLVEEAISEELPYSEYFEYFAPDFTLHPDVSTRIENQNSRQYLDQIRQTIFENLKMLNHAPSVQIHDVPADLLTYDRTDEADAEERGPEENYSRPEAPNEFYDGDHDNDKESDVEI
T4 sequence (Q9Y618 395-489 partner limits assumed): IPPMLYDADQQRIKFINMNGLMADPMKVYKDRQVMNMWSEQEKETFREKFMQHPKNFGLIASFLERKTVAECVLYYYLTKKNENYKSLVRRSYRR
Chain of HDAC1 (Q13547 whole entry): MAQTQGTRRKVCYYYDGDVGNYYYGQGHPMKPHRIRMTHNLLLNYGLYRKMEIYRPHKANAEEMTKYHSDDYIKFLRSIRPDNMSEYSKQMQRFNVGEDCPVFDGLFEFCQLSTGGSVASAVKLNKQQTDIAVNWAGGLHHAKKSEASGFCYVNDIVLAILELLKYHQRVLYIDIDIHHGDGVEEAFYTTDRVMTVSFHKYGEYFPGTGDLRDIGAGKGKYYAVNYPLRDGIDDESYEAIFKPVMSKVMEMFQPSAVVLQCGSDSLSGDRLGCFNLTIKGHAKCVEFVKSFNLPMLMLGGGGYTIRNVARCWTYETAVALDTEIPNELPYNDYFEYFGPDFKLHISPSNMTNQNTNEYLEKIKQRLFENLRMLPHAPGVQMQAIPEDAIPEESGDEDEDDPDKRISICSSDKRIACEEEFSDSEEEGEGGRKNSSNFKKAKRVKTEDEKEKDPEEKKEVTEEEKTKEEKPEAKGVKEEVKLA
T5 sequence (Q92769 whole entry): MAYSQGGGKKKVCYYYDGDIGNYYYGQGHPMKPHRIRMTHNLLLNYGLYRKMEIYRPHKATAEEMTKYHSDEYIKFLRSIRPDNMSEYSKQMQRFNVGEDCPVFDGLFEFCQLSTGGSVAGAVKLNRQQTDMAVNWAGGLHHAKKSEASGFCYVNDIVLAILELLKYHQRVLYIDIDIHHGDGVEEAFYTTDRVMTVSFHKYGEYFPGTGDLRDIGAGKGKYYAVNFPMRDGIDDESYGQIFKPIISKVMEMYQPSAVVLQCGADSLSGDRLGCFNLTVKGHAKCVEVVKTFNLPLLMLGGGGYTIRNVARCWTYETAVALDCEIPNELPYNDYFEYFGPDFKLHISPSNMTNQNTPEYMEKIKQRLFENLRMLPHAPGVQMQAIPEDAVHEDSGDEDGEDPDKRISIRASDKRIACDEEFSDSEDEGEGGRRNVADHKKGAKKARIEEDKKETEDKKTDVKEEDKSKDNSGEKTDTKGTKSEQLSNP

| pIC50 (HDAC 9) | pIC50 (HDAC 4) | pIC50 (HDAC1) | pIC50 (HDAC 7) | pIC50 (HDAC 3) | pIC50 (HDAC 2) | pIC50 (HDAC 10) | Structure (SMILES) | clinical score ([1]; 10 mg/kg twice a day, score 0 to 16, vehicle group 11.6) | clinical score ([1]; 30 mg/kg twice a day, score 0 to 16, vehicle group 11.6) | arthritis symptoms improved by ([1]; 10 and 30 mg/kg twice a day) | arthritis symptoms improved by ([1]; different concentrations (doses not given)) | clinical score ([1]; different concentrations, first value listed (dose not given), vehicle group 6.7) | clinical score ([1]; different concentrations, second value listed (dose not given), vehicle group 6.7) |
| --- | --- | --- | --- | --- | --- | --- | --- | --- | --- | --- | --- | --- | --- |
| 5.45 | 5.16 | 6.80 | 5.82 | 5.79 | 6.16 | 5.83 | O=C(NO)c1ccc(CN(C(=O)N2CCOCC2)c2cccc(Br)c2)cc1 [Compound 255, N-(3-bromophenyl)-N-(4-(hydroxycarbamoyl)benzyl)morpholine-4-carboxamide] | 5.2 | 6.5 | more than 50% |  |  |  |
| 4.99 | 4.79 | 5.67 | 5.28 | 4.99 | 5.31 | 4.79 | O=C(NO)c1ccc(CN(C(=O)N2CCOCC2)c2cccc(C(F)(F)F)c2)cc1 [Compound 374, N-(4-(hydroxycarbamoyl)benzyl)-N-(3-(trifluoromethyl)phenyl)morpholine-4-carboxamide] |  |  |  | more than 60% | 2.8 | 2.5 |
